Test results taken from paper PMC8469417, “Is It Possible to Create Antimicrobial Peptides Based on the Amyloidogenic Sequence of Ribosomal S1 Protein of P. aeruginosa?” (International Journal of Molecular Sciences, 2021).
“Also recorded” adds a separate entry of the source. Structures can show the parent of a compound that is named as a salt. Ends that are not written are not given here.

Experiments:
[1] = system: P. aeruginosa strain PA103; experiment: Inhibition zone assay on agar, strain PA103; assay type: cell-based, Pseudomonas aeruginosa; conditions: 24 h
Description: (§1) The R23R, R23L, R23R*, R23L* peptides and an antibiotic (gentamicin sulfate) were dissolved in 100% DMSO and solutions were prepared to test their activity.
The culture of the studied bacteria (P. aeruginosa strain PA103) was diluted 10 times in Luria-Bertani (LB) medium with non-solidified 0.75% agar (w/w) on sterile Petri dishes. […]

[2] = system: P. aeruginosa strain PA103; experiment: Broth microdilution, strain PA103; assay type: cell-based, Pseudomonas aeruginosa; conditions: LB medium, 2% DMSO, 24 h, 37 °C, 600 nm
Description: The R23R, R23L, R23R*, R23L* peptides and an antibiotic (gentamicin sulfate) were dissolved in 100% DMSO and solutions were prepared with a final DMSO concentration of 2% (volume/volume) to test their activity.
Stationary culture of P. aeruginosa strain PA103 was diluted 100 times in fresh LB medium with peptides R23R and R23L or gentamicin sulfate (positive control) at various concentrations. After 24 h at 37 °C co-incubation bacterial cells with peptides, the optical densities of the cultures were measured at a wavelength of 600 nm in a plate reader iMac (BioRad Laboratories, Hercules, CA, USA). Each test was carryout in three replicates.
In the next experiment to prepare a stationary culture of P. aeruginosa, strain PA103, a colony was inoculated from a Petri dish in 1.5 mL of liquid LB medium and set to grow for 24 h at 37 °C and with stirring at 180 rpm. In the experiment, we used a culture with an initial concentration of ≈10^6–10^7 CFU/mL (10 μL), sterile LB medium (80 μL), peptides R23R* and R23L* diluted in 20% (volume/volume) DMSO or the antibiotic gentamicin sulfate as a positive control (10 μL). […] Optical density was measured in a plate reader iMac (BioRad Laboratories, Hercules, CA, USA) at a wavelength of 600 nm every hour from 0 h to 24 h. Each sample is measured in duplicate.

[3] = electron microscopy and fluorescence of thioflavin T; cited from earlier work
Excerpt: In accordance with the strategy presented in Figure 1, we developed hybrid peptides that contained a cell penetrating peptide (CPP) (fragment of Tat-peptide) at the N-termini and an amyloidogenic sequence at the C-termini, which was predicted using bioinformatics tools. The two sites were linked by four glycines. Thus, the construction of the fusion peptide was as follows: “CPP”+”linker GGGG”+ “predicted amyloidogenic-fragment”. The LHITDMAWKR and ITDFGIFIGL sequences were used as amyloidogenic fragments.

[4] = system: P. aeruginosa strain ATCC 9027; experiment: Antimicrobial test on agar, strain ATCC 9027; assay type: cell-based, Pseudomonas aeruginosa
Description: as §1
(§2) The P. aeruginosa strain ATCC 28753 was inoculated with a wire loop in 5 mL of LB medium and was incubated at 37 °C. After 12 h, plastic Petri dishes were poured with LB medium (about 5 mL) with 0.75% agar. Before pouring, 50 μL of an overnight culture of the test bacteria was added to each dish. The R23R, R23L, R23R*, and R23L* peptides were finally dissolved in 2% (volume/volume) DMSO and was tested with different concentrations with gentamicin sulfate as control of antimicrobial effect. The medium was dried and 10 μL of the prepared peptides were applied to it in accordance with the labeling. Then the dishes were placed in a thermostat and incubated for 12 h at a temperature of 37 °C. Antimicrobial activity was recorded by the presence of transparent zones of no growth around drops with peptide.
Studies with the P. aeruginosa strain ATCC 9027 were carried out similarly to the P. aeruginosa strain ATCC 28753. The exception was the amount of LB medium. Sterile plastic Petri dishes were filled with LB medium (about 25 mL) with 0.75% agar and 250 µL of an overnight culture of the test bacteria was added to each dish.

[5] = system: P. aeruginosa strain ATCC 28753; assay type: cell-based, Pseudomonas aeruginosa; conditions: 10 µL drops on LB 0.75% agar, 2% DMSO, 12 h, 37 °C
Description: as §1, §2

[6] = system: human breast duct carcinoma BT474 cells; experiment: Cytotoxicity assay, BT474 cells; assay type: cell-based; conditions: up to 8 µM, 24 h; resazurin assay, calcein-AM / propidium iodide staining, triplicate
Description: (§3) Cell viability was estimated as described previously by resazurin cell viability assay. Each assay was done in triplicate. All measurements were carried out on the control samples that were not treated with cytotoxic substances. We used human diploid fibroblasts and human breast duct carcinoma BT474 cells obtained from the American Type Cell Culture Collection (Manassas, Virginia, VA, USA). BT474 cells were cultured in DMEM medium (Sigma-Aldrich, St. Louis, MO, USA) supplemented with 10% fetal bovine serum (Gibco, Waltham, MA, USA), 40 μg/mL gentamicin sulfate (Sigma-Aldrich, St. Louis, MO, USA), at 37° C, under conditions of 5% content CO2 in the air. The analysis of living and dead cells was carried out using BD Accuri C6 flow cytometer (BD Bioscience, San Jose, CA, USA).

[7] = system: human diploid fibroblasts; experiment: Cytotoxicity assay, human fibroblasts; assay type: cell-based; conditions: up to 8 µM, 24 h; resazurin assay, calcein-AM / propidium iodide staining, triplicate
Description: as §3

## CNC(C)C1CCC(N)C(OC2C(N)CC(N)C(OC3OCC(C)(O)C(NC)C3O)C2O)O1 (centres unmarked) [gentamicin sulfate]
[1]; Pseudomonas aeruginosa, PA103, drops on LB 0.75% agar, 20% DMSO, zones of inhibition, read-out: minimum inhibitory concentration (MIC)
  MIC: 170 µM
[2]; 174 µM
  Optical density: zero
[2]; 1740 µM
  Optical density: zero

## ITDFGIFIGL [amyloidogenic fragment from the fifth domain of ribosomal S1 protein of P. aeruginosa]
[3]
  amyloid-like properties (in words): exhibited amyloid-like properties

## RKKRRQRRRGG-Sar [R12-Sar, CPP fragment with GG-Sar, without amyloidogenic part]
[1]; drops on LB agar, b51 states it for bacteria grown on agar in general
  antimicrobial activity on agar (in words): did not exhibit antimicrobial activity
[1]; peptide 6.56 µM
  antibacterial properties on agar: Non-AMP
[1]; peptide 65.6 µM
  antibacterial properties on agar: Non-AMP
[1]; peptide 656 µM
  antibacterial properties on agar: Non-AMP
[1]; peptide 6560 µM
  antibacterial properties on agar: Non-AMP
[4]; drops on LB 0.75% agar, 3.75-3750 µM tested, zones of inhibition
  antimicrobial activity on agar (in words): did not exhibit antimicrobial activity
[4]; peptide 3.75 µM
  antibacterial properties on agar: Non-AMP
[4]; peptide 37.5 µM
  antibacterial properties on agar: Non-AMP
[4]; peptide 375 µM
  antibacterial properties on agar: Non-AMP
[4]; peptide 3750 µM
  antibacterial properties on agar: Non-AMP

## RKKRRQRRRGGGGITDFGIFIGL [R23L]
[5]
  MIC: about 300 µM
[6]
  cytotoxic effect / cell viability (in words): remained alive; also recorded: did not have a toxic effect
[7]
  cytotoxic effect / cell viability (in words): remained alive; also recorded: did not have a toxic effect

## RKKRRQRRRGGGGLHITDMAWKR [R23R]
[5]
  MIC: about 300 µM
[6]
  cytotoxic effect / cell viability (in words): remained alive; also recorded: did not have a toxic effect
[7]
  cytotoxic effect / cell viability (in words): remained alive; also recorded: did not have a toxic effect
